From patent US5573908A, “Adrenergic receptor as a proto-oncogene” (Duke University, priority 1993, dated 1996)
Where “and” joins values, the source holds several entries; their conditions need not be identical. Identical values can stand only once.

Legend:
[1] = system: RAT-1 fibroblasts transfected with α1B -ADR mutant; test: Focus formation in RAT-1 fibroblasts transfected with α1B-ADR mutant c-DNA; format: cell-based
Experimental: (§1) Transfection was carried out as follows: RAT-1 fibroblasts were seeded at a density of 2×10^5 cells in Dulbecco's modified Eagle's medium (DMEM) (Gibco) containing 5% fetal bovine serum (FBS) in 100 mm dishes. Cells were grown overnight, then transfected with 10 μg of DNA (expression vector alone [pZIP-NeoSV(X)1] or containing the α1B-ADR, α1B -ADR mutant [discussed in Example 3 below] or activated Ha-ras c-DNAs) by calcium phosphate precipitation (B. Cullen, Methods Enzymol. 152, 684 (1987)). The α1B -ADR used herein was the hamster α1B -ADR described in S. Cotecchia et al., Proc. Natl. Acad. Sci. USA 85, 7159-7163 (1988). After 16 hours, the DNA precipitate was removed, the cells washed and grown for 24 hours in complete medium. Cells were split 1:5, allowed to attach overnight and then cultured in DMEM with 5% FBS alone, supplemented with 10 μM norepinephrine (NE) or G418 (300 μg/ml). Dishes were supplemented with NE daily, and fed every 3 days with fresh medium.
(§2) ^1 Cells were cultured for 3 weeks in the presence or absence of 10
(§3) μM norepinephrine (NE), supplemented daily, in medium containing 5%
(§4) FBS. The number of transformed foci were scored after 4 weeks of culture.
(§5) Results represent the average duplicate determinations from two
(§6) independent experiments which agreed within 25%; nd = not determined. […]
(§7) growth, the number of foci was scored. […]

[2] = system: NIH 3T3 fibroblasts transfected with α1B ADR; test: Focus formation in NIH 3T3 fibroblasts transfected with α1B-ADR c-DNA; format: cell-based; settings: NIH 3T3 transfected with α1B ADR; 10 μM NE supplemented daily, 5% FBS (Table 1)
α1B -ADR = settings: NE alone, serum free medium; data not shown
[3] = system: RAT-1 fibroblasts transfected with ras c-DNA; test: Focus formation in RAT-1 fibroblasts transfected with activated Ha-ras c-DNA; format: cell-based
Experimental: as §1, §2, §3, §4, §5, §6, §7

[4] = system: RAT-1 fibroblasts transfected with α1B -ADR c-DNA; test: Focus formation in RAT-1 fibroblasts transfected with α1B-ADR c-DNA; format: cell-based
Experimental: Transfection was carried out as follows: RAT-1 fibroblasts were seeded at a density of 2×10^5 cells in Dulbecco's modified Eagle's medium (DMEM) (Gibco) containing 5% fetal bovine serum (FBS) in 100 mm dishes. […] After 16 hours, the DNA precipitate was removed, the cells washed and grown for 24 hours in complete medium. Cells were split 1:5, allowed to attach overnight and then cultured in DMEM with 5% FBS alone, supplemented with 10 μM norepinephrine (NE) or G418 (300 μg/ml). Dishes were supplemented with NE daily, and fed every 3 days with fresh medium.

[5] = system: RAT-1 fibroblasts transfected with expression vector alone; test: Focus formation in RAT-1 fibroblasts transfected with expression vector alone; format: cell-based
Experimental: as §1, §2, §3, §4, §5, §6, §7

[6] = system: NIH 3T3 fibroblasts transfected with expression vector alone; test: Focus formation in NIH 3T3 fibroblasts transfected with expression vector alone; format: cell-based; settings: NIH 3T3 transfected with vector alone; 10 μM NE supplemented daily, 5% FBS (Table 1)
[7] = system: RAT-1 fibroblast cell lines transfected with vector alone; test: Growth curves of RAT-1 fibroblast cell lines transfected with vector alone; format: cell-based; settings: 10 μM NE daily, 5% FBS

## NC[C@H](O)c1ccc(O)c(O)c1 [NE, norepinephrine]
[1]; RAT-1 transfected with α1B ADR mutant, 10 μM NE supplemented daily, 5% FBS, initially transfected cells (Table 1)
  Foci No. +NE: 11
[1]; focus derived RAT-1 cell lines, α1B ADR mutant, 10 μM NE, 3 weeks of growth, two clones (Table 2)
  Foci No. +NE: > 500
[2]
  Foci No. +NE: 85
α1B -ADR
  increase in DNA synthetic activity: 11 fold
[3]; RAT-1 transfected with ras, 10 μM NE supplemented daily, 5% FBS (Table 1)
  Foci No. +NE: 197
[3]; focus derived RAT-1 cell lines, ras, 10 μM NE, 3 weeks of growth, two clones (Table 2)
  Foci No. +NE: > 500 and 460
[4]; RAT-1, relative to number of G418 resistant colonies (40-60/dish)
  Agonist-induced foci as share of transfected clones: 15-25%
[4]; RAT-1 transfected with α1B ADR, 10 μM NE supplemented daily, 5% FBS, initially transfected cells (Table 1)
  Foci No. +NE: 8
[4]; focus derived RAT-1 cell lines, α1B ADR, 10 μM NE, 3 weeks of growth, two clones (Table 2)
  Foci No. +NE: 75 and 80
[5]; RAT-1 cell lines transfected with vector alone, 10 μM NE, 3 weeks of growth, two clones (Table 2)
  Foci No. +NE: 0
[5]; RAT-1 transfected with vector alone, 10 μM NE supplemented daily, 5% FBS (Table 1)
  Foci No. +NE: 0
[6]
  Foci No. +NE: 12
[7]
  rate of cell proliferation in the presence or absence of catecholamines: no significant difference
